Key:
rat [1] = conditions: Combined chronic toxicity/carcinogenicity, other, Oral, Feed, dose end: 104 week
dog [2] = conditions: Subchronic oral toxicity in nonrodent, beagle, Capsule, dose end: 90 day
dog [3] = conditions: Chronic toxicity, beagle, Oral, Capsule, dose end: 12 month
rat [4] = conditions: Subchronic oral toxicity in rodents, sprague dawley, Feed, dose end: 13 week
mouse [5] = conditions: Carcinogenicity, cd1, Oral, Feed, dose end: 102 week, group: systemic
rabbit [6] = conditions: Prenatal developmental toxicity study, new zealand white, Oral, Capsule, dose end: 18 GD
rabbit [7] = conditions: Prenatal developmental toxicity study, new zealand white, Dermal, Topical, dose end: 18 GD
dog [8] = conditions: Chronic toxicity; beagle; Oral; Feed; dose end: 52 week; group: systemic; systemic / clinical chemistry / albumin / albumin + systemic / clinical chemistry / calcium / calcium + systemic / clinical chemistry / …
rat [9] = conditions: Subchronic oral toxicity in rodents, Feed, dose end: 13 week, group: systemic
mouse [10] = conditions: Subchronic oral toxicity in rodents, cd1, Feed, dose end: 13 week, group: systemic
rat [11] = conditions: Subchronic oral toxicity in rodents, other, Feed, dose end: 13 week, group: systemic, systemic / clinical chemistry / urea nitrogen / urea
rat [12] = conditions: Prenatal developmental toxicity study, fischer, Oral, Gavage/Intubation, dose end: 15 GD
rat [13] = conditions: Sub-acute dermal toxicity, sprague dawley, Topical, dose end: 21 day, group: systemic, systemic / in life observation / clinical signs / desquamation + systemic / in life observation / clinical signs / erythema + systemic / …
rat [14] = conditions: Sub-acute repeat dose toxicity; sprague dawley; Oral; Water; dose end: 14 day; group: systemic; systemic / in life observation / body weight / body weight + systemic / in life observation / food consumption / food consumption + systemic…
rat [15] = conditions: Subchronic oral toxicity in rodents, sprague dawley, Water, dose end: 90 day, group: systemic
rat [16] = conditions: Prenatal developmental toxicity study, long evans, Oral, Gavage/Intubation, dose end: 15 GD
mouse [17] = conditions: Carcinogenicity, b6c3f1, Oral, Water, dose end: 104 week, group: systemic
[18] = group: cholinesterase, cholinesterase / cholinesterase / cholinesterase / erythrocyte cholinesterase (che)
[19] = group: systemic, systemic / hematology / erythrocyte (rbc) count differential / erythrocyte (rbc) + systemic / hematology / hematocrit (hct) / hematocrit (…
[20] = group: systemic, systemic / urinalysis / volume / volume
[21] = group: cholinesterase, cholinesterase / cholinesterase / cholinesterase / plasma cholinesterase (che)
[22] = group: cholinesterase, cholinesterase / cholinesterase / cholinesterase / plasma cholinesterase (che) + cholinesterase / cholinesterase / cholinesterase / brain …
[23] = group: systemic, systemic / pathology microscopic / adrenal gland / cytoplasmic alteration + systemic / pathology microscopic / adrenal gland / hypertrophy
[24] = group: systemic, systemic / clinical chemistry / alanine aminotransferase (alt/sgpt) / alanine aminotransferase (alt/sgpt)
[25] = group: systemic, systemic / clinical chemistry / alanine aminotransferase (alt/sgpt) / alanine aminotransferase (alt/sgpt) + systemic / hematology / …
[26] = group: systemic, systemic / pathology microscopic / adrenal gland / vacuolization cytoplasmic
[27] = systemic / pathology microscopic / adrenal gland / pigmentation
[28] = systemic / pathology microscopic / adrenal gland / pigmentation + systemic / in life observation / body weight / body weight + systemic / in…
[29] = group: developmental, developmental / developmental malformation / bone / supernumerary + developmental / developmental malformation / gallbladder / [other] + …
[30] = group: maternal, reproductive / reproductive performance / aborted / aborted + reproductive / reproductive performance / postimplantation loss / …
[31] = group: maternal, systemic / in life observation / body weight / body weight + systemic / in life observation / body weight / body weight gain + systemic / in…
[32] = group: developmental, developmental / developmental malformation / bone / supernumerary + developmental / developmental malformation / bone / unossified + …
[33] = group: maternal, systemic / in life observation / body weight / body weight gain
[34] = systemic / in life observation / body weight / body weight
[35] = systemic / in life observation / body weight / body weight + systemic / clinical chemistry / urea nitrogen / urea + systemic / urinalysis / …
[36] = systemic / in life observation / body weight / body weight + systemic / organ weight / liver / relative to body weight
[37] = group: developmental, developmental / developmental malformation / bone / ossification sites + developmental / developmental malformation / bone / supernumerary
[38] = group: maternal, systemic / in life observation / body weight / body weight
[39] = systemic / in life observation / water consumption / water consumption
[40] = systemic / in life observation / water consumption / water consumption + systemic / in life observation / body weight / body weight + …
[41] = group: developmental, developmental / developmental malformation / bone / [other] + developmental / developmental malformation / general / crown-rump length + …
[42] = group: developmental, developmental / developmental malformation / general / crown-rump length + developmental / developmental malformation / all gross anomalies…
[43] = group: maternal, reproductive / reproductive performance / implantations / implantations + reproductive / reproductive performance / postimplantation loss / …
[44] = group: maternal, systemic / organ weight / kidney / absolute + systemic / organ weight / spleen / absolute
[45] = systemic / pathology microscopic / liver / adenoma + systemic / pathology microscopic / liver / adenoma/carcinoma combined + systemic / …
[46] = systemic / pathology microscopic / liver / focal cellular change

## CCOP(=O)(SC(C)CC)N1CCSC1=O (stereo not given) [Fosthiazate]
Rat [1]; [18]
  LEL: 0.051 mg/kg/day
  LOAEL: 0.38 mg/kg/day
  NEL: < 0.051 mg/kg/day
Rat [1]; group: cholinesterase, cholinesterase / cholinesterase / cholinesterase / erythrocyte cholinesterase (che) + cholinesterase / cholinesterase / cholinesterase / …
  NOAEL: 0.039 mg/kg/day
Rat [1]; [19]
  LOAEL: 2.45 mg/kg/day
  NOAEL: 0.5 mg/kg/day
Rat [1]; [20]
  LEL: 0.039 mg/kg/day
  NEL: < 0.039 mg/kg/day
Dog [2]; [21]
  LEL: 0.11 mg/kg/day
  LOAEL: 0.11 mg/kg/day
Dog [2]; [22]
  NEL: 0.054 mg/kg/day
  NOAEL: 0.054 mg/kg/day
Dog [2]; [23]
  LEL: 0.11 mg/kg/day
  LOAEL: 0.11 mg/kg/day
  NEL: 0.054 mg/kg/day
  NOAEL: 0.054 mg/kg/day
Dog [3]; [21]
  LEL: 0.5 mg/kg/day
  LOAEL: 0.5 mg/kg/day
  NEL: 0.1 mg/kg/day
  NOAEL: 0.1 mg/kg/day
Dog [3]; [24]
  LEL: 0.5 mg/kg/day
  LOAEL: 0.5 mg/kg/day
Dog [3]; [25]
  NEL: 0.1 mg/kg/day
  NOAEL: 0.1 mg/kg/day
Rat [4]; [18]
  LEL: 0.09 mg/kg/day
  LOAEL: 0.09 mg/kg/day
  NEL: < 0.09 mg/kg/day
  NOAEL: < 0.09 mg/kg/day
Rat [4]; [26]
  LEL: 0.08 mg/kg/day
  LOAEL: 0.08 mg/kg/day
  NEL: < 0.08 mg/kg/day
  NOAEL: < 0.08 mg/kg/day
Mouse [5]; [27]
  LEL: 10.4 mg/kg/day
  LOAEL: 10.4 mg/kg/day
Mouse [5]; [28]
  NEL: 3.2 mg/kg/day
  NOAEL: 3.2 mg/kg/day

## CCNc1nc(Cl)nc(NC(C)(C)C#N)n1 [Cyanazine]
Rabbit [6]; group: developmental, developmental / developmental malformation / bone / absent + developmental / developmental malformation / bone / supernumerary
  LOAEL: 2 mg/kg/day
Rabbit [6]; group: developmental, developmental / developmental malformation / bone / absent + developmental / developmental malformation / bone / supernumerary + …
  NOAEL: 1 mg/kg/day
Rabbit [6]; [29]
  LEL: 1 mg/kg/day
  NEL: < 1 mg/kg/day
Rabbit [6]; [30]
  LOAEL: 2 mg/kg/day
  NOAEL: 1 mg/kg/day
Rabbit [6]; [31]
  LEL: 1 mg/kg/day
  NEL: < 1 mg/kg/day
Rabbit [7]; group: developmental, developmental / developmental malformation / bone / supernumerary + developmental / developmental malformation / bone / unossified
  LOAEL: 955 mg/kg/day
Rabbit [7]; [32]
  NEL: 286 mg/kg/day
  NOAEL: 573 mg/kg/day
Rabbit [7]; group: developmental, systemic / in life observation / body weight / fetal weight
  LEL: 573 mg/kg/day
Rabbit [7]; [33]
  LEL: 96 mg/kg/day
  LOAEL: 96 mg/kg/day
  NEL: < 96 mg/kg/day
  NOAEL: < 96 mg/kg/day
Dog [8]
  LEL: 3.02 mg/kg/day
  LOAEL: 3.02 mg/kg/day
  NEL: 0.72 mg/kg/day
  NOAEL: 0.72 mg/kg/day
Rat [9]; [34]
  LOAEL: 0.005 mg/kg/day
  NOAEL: < 0.005 mg/kg/day
Rat [9]; [35]
  LEL: 0.005 mg/kg/day
  NEL: < 0.005 mg/kg/day
Mouse [10]; [34]
  LOAEL: 75 mg/kg/day
Mouse [10]; [36]
  LEL: 75 mg/kg/day
  NEL: 7.5 mg/kg/day
  NOAEL: 7.5 mg/kg/day
Rat [11]
  LEL: 0.075 mg/kg/day
  LOAEL: 0.075 mg/kg/day
  NEL: < 0.075 mg/kg/day
  NOAEL: < 0.075 mg/kg/day
Rat [12]; [37]
  LEL: 5 mg/kg/day
  LOAEL: 5 mg/kg/day
  NEL: < 5 mg/kg/day
  NOAEL: < 5 mg/kg/day
Rat [12]; [38]
  LEL: 5 mg/kg/day
  LOAEL: 5 mg/kg/day
  NEL: < 5 mg/kg/day
  NOAEL: < 5 mg/kg/day

## ClCCCCCCCl [1,6-Dichlorohexane]
Rat [13]
  LEL: 100 mg/kg/day
  LOAEL: 100 mg/kg/day
  NEL: < 100 mg/kg/day
  NOAEL: < 100 mg/kg/day

## O=C(O)C(Cl)(Cl)Cl [Trichloroacetic acid]
Rat [14]
  LEL: 119 mg/kg/day
  LOAEL: > 119 mg/kg/day
  NEL: 31.6 mg/kg/day
  NOAEL: ≥ 119 mg/kg/day
Rat [15]; [39]
  LEL: 4.1 mg/kg/day
  NEL: < 4.1 mg/kg/day
Rat [15]; [40]
  LOAEL: > 355 mg/kg/day
  NOAEL: ≥ 355 mg/kg/day
Rat [16]; [41]
  LOAEL: > 1800 mg/kg/day
  NOAEL: ≥ 1800 mg/kg/day
Rat [16]; [42]
  LEL: 330 mg/kg/day
  NEL: < 330 mg/kg/day
Rat [16]; [43]
  LOAEL: > 1800 mg/kg/day
  NOAEL: ≥ 1800 mg/kg/day
Rat [16]; [44]
  LEL: 330 mg/kg/day
  NEL: < 330 mg/kg/day
Mouse [17]; [45]
  LOAEL: > 572 mg/kg/day
  NOAEL: ≥ 572 mg/kg/day
Mouse [17]; [46]
  LEL: 6 mg/kg/day
  NEL: < 6 mg/kg/day

Reference: EPA's ToxRefDB 2
